Test results: paper PMC9851200, “Multiparameter phenotypic screening for endogenous TFEB and TFE3 translocation identifies novel chemical series modulating lysosome function” (Autophagy, 2022)

Columns and labels:
Format in all cases: binding
[1] = target: T1, kinases (KINOMEscan panel) (Homo sapiens, UniProt P35626); settings: GRK3; NEW KINOMEscan
T1 sequence (P35626 1-688): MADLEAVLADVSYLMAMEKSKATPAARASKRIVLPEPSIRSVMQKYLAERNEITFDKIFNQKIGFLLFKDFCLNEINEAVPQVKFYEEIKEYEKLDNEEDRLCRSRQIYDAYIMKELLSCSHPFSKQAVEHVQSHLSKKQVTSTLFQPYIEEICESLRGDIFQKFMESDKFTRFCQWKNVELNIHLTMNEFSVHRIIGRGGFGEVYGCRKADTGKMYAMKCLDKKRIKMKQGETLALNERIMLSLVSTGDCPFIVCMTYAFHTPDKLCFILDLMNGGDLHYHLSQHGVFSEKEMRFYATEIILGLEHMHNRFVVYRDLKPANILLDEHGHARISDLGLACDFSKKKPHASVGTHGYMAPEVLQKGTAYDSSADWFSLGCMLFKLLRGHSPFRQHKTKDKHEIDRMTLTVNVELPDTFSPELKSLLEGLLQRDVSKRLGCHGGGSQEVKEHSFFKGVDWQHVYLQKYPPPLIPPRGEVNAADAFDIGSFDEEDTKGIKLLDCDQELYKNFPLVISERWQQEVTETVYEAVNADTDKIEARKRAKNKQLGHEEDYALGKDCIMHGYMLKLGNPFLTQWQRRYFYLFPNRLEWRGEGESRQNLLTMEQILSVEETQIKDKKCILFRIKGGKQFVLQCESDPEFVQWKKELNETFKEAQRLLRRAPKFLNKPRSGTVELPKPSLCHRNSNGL

[2] = target: kinases (KINOMEscan panel) (Homo sapiens, UniProt P00533); settings: kinase EGFR; NEW KINOMEscan
[3] = target: T2, kinases (KINOMEscan panel) (Homo sapiens, UniProt P42680); settings: kinase TEC; NEW KINOMEscan
T2 sequence (P42680 1-631): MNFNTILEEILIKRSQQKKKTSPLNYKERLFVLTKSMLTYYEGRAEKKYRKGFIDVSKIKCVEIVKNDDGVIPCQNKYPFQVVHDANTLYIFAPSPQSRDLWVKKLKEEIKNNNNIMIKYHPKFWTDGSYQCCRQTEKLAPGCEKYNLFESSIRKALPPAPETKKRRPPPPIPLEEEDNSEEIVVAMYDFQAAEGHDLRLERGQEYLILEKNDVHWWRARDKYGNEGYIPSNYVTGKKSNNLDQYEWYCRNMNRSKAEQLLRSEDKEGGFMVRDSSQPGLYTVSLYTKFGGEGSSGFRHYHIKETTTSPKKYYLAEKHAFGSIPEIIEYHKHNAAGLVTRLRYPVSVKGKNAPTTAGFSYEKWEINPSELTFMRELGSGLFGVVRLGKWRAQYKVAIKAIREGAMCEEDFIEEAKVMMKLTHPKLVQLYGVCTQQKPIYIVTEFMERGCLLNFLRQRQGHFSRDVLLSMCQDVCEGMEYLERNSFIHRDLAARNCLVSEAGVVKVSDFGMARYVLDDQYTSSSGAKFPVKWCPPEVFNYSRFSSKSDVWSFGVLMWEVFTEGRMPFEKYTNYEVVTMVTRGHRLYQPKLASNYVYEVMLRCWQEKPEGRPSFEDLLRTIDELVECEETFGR

[4] = target: kinases (KINOMEscan panel) (Homo sapiens, UniProt P30291); settings: WEE1; NEW KINOMEscan
[5] = target: kinases (KINOMEscan panel) (Homo sapiens, UniProt O96013); settings: PAK4; NEW KINOMEscan
[6] = target: kinases (KINOMEscan panel) (Homo sapiens, UniProt P10721, L576P); settings: KIT(L576P); NEW KINOMEscan
[7] = target: kinases (KINOMEscan panel) (Homo sapiens, UniProt P36888, K663Q); settings: kinase FLT3(K663Q); NEW KINOMEscan
[8] = target: kinases (KINOMEscan panel) (Homo sapiens, UniProt P41240); settings: kinase CSK; NEW KINOMEscan
[9] = target: kinases (KINOMEscan panel) (Homo sapiens, UniProt Q15375); settings: EPHA7; NEW KINOMEscan
[10] = target: kinases (KINOMEscan panel) (Homo sapiens, UniProt P32298); settings: kinase GRK4; NEW KINOMEscan
[11] = target: T3, kinases (KINOMEscan panel) (Homo sapiens, UniProt Q13237); settings: PRKG2; NEW KINOMEscan
T3 sequence (Q13237 1-762): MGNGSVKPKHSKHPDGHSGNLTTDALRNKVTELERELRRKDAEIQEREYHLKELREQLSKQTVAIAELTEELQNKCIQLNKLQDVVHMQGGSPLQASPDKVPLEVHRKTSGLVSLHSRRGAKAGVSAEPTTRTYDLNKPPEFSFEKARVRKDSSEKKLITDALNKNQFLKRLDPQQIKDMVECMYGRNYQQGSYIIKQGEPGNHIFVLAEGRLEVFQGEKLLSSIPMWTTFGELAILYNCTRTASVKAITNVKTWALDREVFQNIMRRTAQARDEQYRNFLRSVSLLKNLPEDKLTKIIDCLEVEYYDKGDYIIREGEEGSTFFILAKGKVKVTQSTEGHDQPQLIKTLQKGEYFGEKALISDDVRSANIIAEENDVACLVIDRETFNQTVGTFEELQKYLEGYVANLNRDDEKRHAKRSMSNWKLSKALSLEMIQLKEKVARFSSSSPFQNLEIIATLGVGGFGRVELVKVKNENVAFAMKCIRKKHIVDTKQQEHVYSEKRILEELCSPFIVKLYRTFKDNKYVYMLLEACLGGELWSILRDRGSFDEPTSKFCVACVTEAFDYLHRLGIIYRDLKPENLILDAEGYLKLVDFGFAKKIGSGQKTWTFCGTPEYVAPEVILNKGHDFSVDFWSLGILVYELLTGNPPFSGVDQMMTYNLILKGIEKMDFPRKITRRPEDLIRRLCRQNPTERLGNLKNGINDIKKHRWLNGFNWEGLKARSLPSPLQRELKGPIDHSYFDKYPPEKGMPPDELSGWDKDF

[12] = target: kinases (KINOMEscan panel) (Homo sapiens, UniProt P19784); settings: CSNK2A2; NEW KINOMEscan
Sequence of kinases (KINOMEscan panel) (Homo sapiens, UniProt P19784) (P19784 whole entry): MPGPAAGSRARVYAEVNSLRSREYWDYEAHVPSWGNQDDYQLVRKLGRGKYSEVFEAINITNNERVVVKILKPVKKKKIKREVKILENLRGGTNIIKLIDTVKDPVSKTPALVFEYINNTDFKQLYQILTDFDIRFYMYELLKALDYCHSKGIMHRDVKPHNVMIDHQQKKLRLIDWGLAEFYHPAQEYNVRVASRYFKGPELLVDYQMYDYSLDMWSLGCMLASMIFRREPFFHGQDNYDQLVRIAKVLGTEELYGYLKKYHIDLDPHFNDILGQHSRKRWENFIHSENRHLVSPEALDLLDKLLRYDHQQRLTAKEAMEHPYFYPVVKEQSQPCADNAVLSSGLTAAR

Sequence of kinases (KINOMEscan panel) (Homo sapiens, UniProt P41240) (P41240 whole entry): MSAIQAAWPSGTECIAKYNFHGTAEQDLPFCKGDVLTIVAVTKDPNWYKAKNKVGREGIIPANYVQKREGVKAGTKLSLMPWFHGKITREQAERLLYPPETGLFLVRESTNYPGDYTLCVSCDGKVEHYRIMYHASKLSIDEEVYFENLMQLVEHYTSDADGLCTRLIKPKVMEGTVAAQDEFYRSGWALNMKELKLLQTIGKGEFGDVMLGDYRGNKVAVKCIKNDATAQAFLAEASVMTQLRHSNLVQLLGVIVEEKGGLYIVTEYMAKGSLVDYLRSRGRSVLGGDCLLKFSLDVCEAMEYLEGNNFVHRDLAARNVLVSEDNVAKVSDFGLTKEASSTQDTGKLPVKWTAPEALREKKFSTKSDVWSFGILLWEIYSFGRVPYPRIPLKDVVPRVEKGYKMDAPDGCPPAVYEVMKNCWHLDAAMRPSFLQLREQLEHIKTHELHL
Sequence of kinases (KINOMEscan panel) (Homo sapiens, UniProt P30291) (P30291 whole entry): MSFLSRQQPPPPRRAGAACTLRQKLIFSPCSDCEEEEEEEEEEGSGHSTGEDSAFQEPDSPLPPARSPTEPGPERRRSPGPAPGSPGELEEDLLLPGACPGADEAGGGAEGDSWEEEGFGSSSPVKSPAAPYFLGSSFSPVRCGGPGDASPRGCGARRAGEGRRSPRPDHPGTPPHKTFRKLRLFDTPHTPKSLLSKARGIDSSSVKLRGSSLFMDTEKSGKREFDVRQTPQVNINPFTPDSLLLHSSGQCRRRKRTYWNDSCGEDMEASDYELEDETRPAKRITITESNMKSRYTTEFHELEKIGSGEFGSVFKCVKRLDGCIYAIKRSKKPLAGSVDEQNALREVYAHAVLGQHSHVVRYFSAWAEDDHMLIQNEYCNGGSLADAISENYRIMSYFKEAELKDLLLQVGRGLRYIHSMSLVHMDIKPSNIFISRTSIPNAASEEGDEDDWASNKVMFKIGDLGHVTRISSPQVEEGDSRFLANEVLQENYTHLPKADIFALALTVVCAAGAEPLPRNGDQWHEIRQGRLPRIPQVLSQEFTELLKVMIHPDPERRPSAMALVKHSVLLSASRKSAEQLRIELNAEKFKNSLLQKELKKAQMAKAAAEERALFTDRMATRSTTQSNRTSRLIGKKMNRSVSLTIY
Sequence of kinases (KINOMEscan panel) (Homo sapiens, UniProt Q15375) (Q15375 28-998): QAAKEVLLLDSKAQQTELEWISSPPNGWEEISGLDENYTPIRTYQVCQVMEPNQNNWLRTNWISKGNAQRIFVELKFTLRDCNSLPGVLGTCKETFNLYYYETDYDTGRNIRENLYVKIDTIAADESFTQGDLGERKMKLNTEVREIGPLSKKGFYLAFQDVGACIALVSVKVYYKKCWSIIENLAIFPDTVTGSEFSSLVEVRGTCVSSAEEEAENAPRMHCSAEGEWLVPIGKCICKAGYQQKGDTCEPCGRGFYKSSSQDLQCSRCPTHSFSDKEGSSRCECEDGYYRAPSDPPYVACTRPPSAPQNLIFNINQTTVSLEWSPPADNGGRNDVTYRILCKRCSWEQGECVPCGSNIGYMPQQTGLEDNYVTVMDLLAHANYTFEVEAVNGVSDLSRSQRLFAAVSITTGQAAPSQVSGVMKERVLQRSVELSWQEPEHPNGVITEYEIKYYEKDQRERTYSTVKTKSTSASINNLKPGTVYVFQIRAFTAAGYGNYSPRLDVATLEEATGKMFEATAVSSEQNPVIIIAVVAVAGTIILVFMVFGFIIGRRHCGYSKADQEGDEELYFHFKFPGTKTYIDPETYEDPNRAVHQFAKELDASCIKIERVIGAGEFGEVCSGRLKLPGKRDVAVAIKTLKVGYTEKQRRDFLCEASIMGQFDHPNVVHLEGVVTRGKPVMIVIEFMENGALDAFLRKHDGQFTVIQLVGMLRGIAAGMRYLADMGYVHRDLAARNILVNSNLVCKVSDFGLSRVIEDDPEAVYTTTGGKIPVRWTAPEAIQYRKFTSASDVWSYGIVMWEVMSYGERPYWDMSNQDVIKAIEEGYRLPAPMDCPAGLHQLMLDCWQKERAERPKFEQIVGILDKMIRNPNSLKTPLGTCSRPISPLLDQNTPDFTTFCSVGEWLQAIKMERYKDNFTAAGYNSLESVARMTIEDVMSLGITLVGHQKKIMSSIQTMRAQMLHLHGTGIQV
Sequence of kinases (KINOMEscan panel) (Homo sapiens, UniProt P32298) (P32298 whole entry): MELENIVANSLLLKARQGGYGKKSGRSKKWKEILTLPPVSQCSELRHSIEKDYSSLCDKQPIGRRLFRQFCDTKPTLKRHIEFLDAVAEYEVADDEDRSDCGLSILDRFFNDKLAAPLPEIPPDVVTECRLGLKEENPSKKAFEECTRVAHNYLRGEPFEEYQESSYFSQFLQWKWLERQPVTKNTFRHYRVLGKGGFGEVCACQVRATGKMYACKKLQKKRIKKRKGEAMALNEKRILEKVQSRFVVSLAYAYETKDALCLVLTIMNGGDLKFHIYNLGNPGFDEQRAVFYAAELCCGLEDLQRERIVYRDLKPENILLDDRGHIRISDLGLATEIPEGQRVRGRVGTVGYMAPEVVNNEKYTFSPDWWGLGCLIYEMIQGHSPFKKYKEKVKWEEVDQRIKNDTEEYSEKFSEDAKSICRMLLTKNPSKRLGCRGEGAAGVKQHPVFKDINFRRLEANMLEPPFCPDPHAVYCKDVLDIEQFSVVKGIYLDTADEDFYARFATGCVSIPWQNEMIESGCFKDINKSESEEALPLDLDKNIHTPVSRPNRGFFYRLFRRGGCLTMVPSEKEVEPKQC
Sequence of kinases (KINOMEscan panel) (Homo sapiens, UniProt P00533) (P00533 25-1210): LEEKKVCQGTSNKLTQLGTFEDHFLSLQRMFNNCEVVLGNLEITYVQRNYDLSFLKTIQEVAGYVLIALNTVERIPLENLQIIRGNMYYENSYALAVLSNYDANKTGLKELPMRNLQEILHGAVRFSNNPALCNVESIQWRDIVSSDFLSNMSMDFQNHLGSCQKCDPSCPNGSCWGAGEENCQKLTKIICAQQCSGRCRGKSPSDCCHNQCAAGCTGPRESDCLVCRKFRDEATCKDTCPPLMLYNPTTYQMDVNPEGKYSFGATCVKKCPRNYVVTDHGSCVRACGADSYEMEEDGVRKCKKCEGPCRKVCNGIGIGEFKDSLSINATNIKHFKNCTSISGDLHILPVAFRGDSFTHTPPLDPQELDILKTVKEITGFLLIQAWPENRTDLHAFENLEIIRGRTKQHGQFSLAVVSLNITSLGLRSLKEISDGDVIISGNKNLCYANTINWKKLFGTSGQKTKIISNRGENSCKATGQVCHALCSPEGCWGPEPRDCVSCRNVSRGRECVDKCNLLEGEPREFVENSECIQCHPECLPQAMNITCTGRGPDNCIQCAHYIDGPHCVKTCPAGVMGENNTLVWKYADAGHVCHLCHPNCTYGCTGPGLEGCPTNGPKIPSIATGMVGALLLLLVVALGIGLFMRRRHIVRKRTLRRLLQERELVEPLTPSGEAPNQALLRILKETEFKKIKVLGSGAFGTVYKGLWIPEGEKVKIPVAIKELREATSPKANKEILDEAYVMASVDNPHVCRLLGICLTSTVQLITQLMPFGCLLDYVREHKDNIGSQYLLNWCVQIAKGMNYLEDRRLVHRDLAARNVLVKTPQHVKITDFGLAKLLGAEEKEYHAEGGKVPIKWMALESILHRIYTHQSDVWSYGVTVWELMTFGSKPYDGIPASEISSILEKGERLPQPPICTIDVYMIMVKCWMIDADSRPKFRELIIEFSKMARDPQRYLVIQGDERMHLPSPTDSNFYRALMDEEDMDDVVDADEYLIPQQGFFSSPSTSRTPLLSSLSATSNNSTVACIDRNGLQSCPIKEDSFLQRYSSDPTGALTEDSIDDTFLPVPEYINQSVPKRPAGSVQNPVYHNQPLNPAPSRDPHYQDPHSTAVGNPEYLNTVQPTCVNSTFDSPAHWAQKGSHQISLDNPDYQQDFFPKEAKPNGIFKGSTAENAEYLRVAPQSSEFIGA
Sequence of kinases (KINOMEscan panel) (Homo sapiens, UniProt O96013) (O96013 whole entry): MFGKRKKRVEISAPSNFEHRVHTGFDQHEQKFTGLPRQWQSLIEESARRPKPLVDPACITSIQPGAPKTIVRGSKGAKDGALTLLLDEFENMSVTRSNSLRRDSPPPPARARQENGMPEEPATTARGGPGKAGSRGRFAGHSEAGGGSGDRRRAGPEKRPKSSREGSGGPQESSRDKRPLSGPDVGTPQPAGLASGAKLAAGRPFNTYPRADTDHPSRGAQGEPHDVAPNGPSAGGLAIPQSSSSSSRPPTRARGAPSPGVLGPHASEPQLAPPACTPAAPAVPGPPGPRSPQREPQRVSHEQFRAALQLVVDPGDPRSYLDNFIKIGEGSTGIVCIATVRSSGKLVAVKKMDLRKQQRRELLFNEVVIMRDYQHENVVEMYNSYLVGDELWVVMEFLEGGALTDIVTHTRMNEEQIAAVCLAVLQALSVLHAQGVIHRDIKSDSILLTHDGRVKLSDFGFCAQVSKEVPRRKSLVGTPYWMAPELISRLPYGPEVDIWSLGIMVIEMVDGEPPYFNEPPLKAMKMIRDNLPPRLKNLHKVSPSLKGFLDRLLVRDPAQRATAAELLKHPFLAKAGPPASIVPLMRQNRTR

SMILES	KINOMEscan GRK3 [1]	KINOMEscan EGFR [2]	KINOMEscan TEC [3]	KINOMEscan WEE1 [4]	KINOMEscan PAK4 [5]	KINOMEscan KIT(L576P) [6]	KINOMEscan FLT3(K663Q) [7]	KINOMEscan CSK [8]	KINOMEscan EPHA7 [9]	KINOMEscan GRK4 [10]	KINOMEscan PRKG2 [11]	KINOMEscan CSNK2A2 [12]
Cc1cccc(-c2nc(N(C)c3ccc4ncsc4c3)c3ccccc3n2)n1 [NK-161]	25	1	0	0	0	0	0	0	0	0	0	5
Cc1cccc(-c2nc(Nc3ccc4nn(C)cc4c3)c3ccccc3n2)n1 [NK167]	0	0	0	0	0	3	0	6	0	0	5	0
